In the assay the test system is TNF-α expression in canine DH82 cells. Briefly: Effect of PPARγ agonist on TNF-α mRNA levels (Q-PCR) in canine DH82 cells. Conditions: two hours, normalized to GAPDH. Format: cell-based. As to the method:
Canine DH82 cells (ATCC No. CRL-10389) were cultured in RPMI 1640 medium containing 2 mM L-glutamine, 25 mM Hepes, 10% fetal bovine serum (FBS) and 1× antimycotic at 37° C., 95% humidity, and 5% CO2. Cells were treated with 10 nM PMA (Sigma-Aldrich, St. Louis, Mo.), PMA (10 nM) plus darglitazone (10 uM), and darglitazone (10 μM), respectively for two hours. After treatment, cell RNA lysis buffer was added to the cells. Samples were loaded into MagNa Pure™ machine (F. Hoffmann-La Roche, Basel, Switzerland). MagNa Pure LC™ RNA isolation Kit II (F. Hoffmann-La Roche) was used for isolation of total RNA from culture cells. First strand cDNA synthesis kit for RT-PCR (F. Hoffmann-La Roche) was used to synthesize cDNA. Samples were incubated at 25° C. for 10 minutes and then at 42° C. for 60 minutes, denatured at 90° C. for 5 minutes and cooled to 4° C. for 1-2 hr or at −20° C. for longer periods. Quantification PCR (Q-PCR) was performed using the Lightcycler Faster DNA Master SYBR Green 1™ kit (F. Hoffmann-La Roche) using canine TNF-α primers (forward primer: 5′ […], reverse primer: 5′ […]). […] For quantification, melting points were measured every 0.2° C. from 60° C. to 99° C. using fluorescence detection. […]

For the compound `Cc1oc(-c2ccccc2)nc1CCC(=O)c1ccc(CC2SC(=O)NC2=O)cc1` (centres unmarked) [darglitazone], under “PMA 10 nM plus darglitazone 10 uM, FIG. 2B”, the “reduction of TNF-α expression in PMA stimulated cells” value is reported as “about 15%”. Besides, the “reduction of TNF-α expression from the basal level” value (unstimulated, darglitazone 10 μM, control basal level = 100%, FIG. 2A) was “about 40%”.
